These results are taken from patent US8735384B2, “Amino heteroaryl compounds as beta-secretase modulators and methods of use” (Amgen Inc., priority 2010, dated 2014).

The target of one experiment is BACE1 (Homo sapiens, UniProt P56817). The experiment is described as follows: In vitro enzymatic BACE FRET assay. It counts as biochemical. As to conditions: beta secretase enzyme 0.2 nM, FRET substrate 50 nM, pH 4.2; read-out: BACE1 FRET assay (IC50 class). The protocol: In Vitro Enzymatic BACE FRET (Fluorescence Resonance Energy Transfer) Assay (Enzyme Assay Data in Table 1)
The assay buffer used in this screen is 0.05 M acetate, pH 4.2, 10% DMSO final, 100 uM genapol (which is a nonionic detergent, below its Critical Micelle Concentration). The beta secretase enzyme (0.2 nM) is pre-incubated for one hour with inhibitors, typically in about 1 uL of DMSO according to a serial dilution, are added thereto. The assay is effectively started by the addition of FRET substrate (50 nM) and the combination is incubated for one hour. The FRET assay is terminated with by addition of Tris buffer, which raises the pH to neutrality, and the fluorescence is determined. The FRET substrate is a peptide with commercially available fluorophore and quencher, on opposite sides of the BACE cleavage site. Proteolytic cleavage of the FRET substrate releases quenching of fluorescence (excitation […] and […]).
Of the compounds tested, the in-vitro BACE FRET enzyme data for each of Examples 1-220, where available at the time of filing this application, is provided in Table 1.

For experiment [1], the system named is Aβ40 in conditioned medium of cells stably expressing Amyloid Precursor Protein (APP). The experiment can be described thus: In vitro BACE cell-based assay (HEK cell assay), Aβ40 sandwich ELISA. As to conditions: Homo sapiens, HEK293, 24 h, inhibition of Aβ40, 24 h incubation, read-out: HEK cell assay (IC50 class). The protocol:
In Vitro BACE Cell-Based Assay:
The cell-based assay measures inhibition or reduction of Aβ40 in conditioned medium of test compound treated cells expressing amyloid precursor protein.
Cells stably expressing Amyloid Precursor Protein (APP) were plated at a density of 40K cells/well in 96 well plates (Costar). The cells were cultivated for 24 hours at 37° C. and 5% CO2 in DMEM supplemented with 10% FBS. The test compounds were then added to cells in 10-point dose response concentrations with the starting concentration being either 100 μM or 10 μM. The compounds were diluted from stock solutions in DMSO and the final DMSO concentration of the test compounds on cells was 0.1%. After 24 h of incubation with the test compounds the supernatant conditioned media was collected and the Aβ 40 levels were determined using a sandwich ELISA. The IC50 of the compound was calculated from the percent of control or percent inhibition of Aβ 40 as a function of the concentration of the test compound.
The sandwich ELISA to detect Aβ 40 was performed in 96 well microtiter plates, which were pre-treated with goat anti-rabbit IgG (Pierce). The capture and detecting antibody pair that were used to detect Aβ 40 from cell supernatants were affinity purified pAb40 (Biosource) and biotinylated 6E10 (Signet Labs Inc.), respectively. The optimal concentration for the pAb40 antibody was 3 μg/ml in Superblock/TBS (Pierce) that was supplemented with 0.05% Tween 20 (Sigma). Optimal concentration for the detection antibody 6E10-biotinylated was 0.5 μg/ml in Superblock/TBS (Pierce) that had been supplemented with 2% normal goat serum and 2% normal mouse serum.
Cellular supernatants were incubated with the capture antibody for 3 h at 4° C., followed by 3 wash steps in TBS-tween (0.05%). The detecting antibody incubation was for 2 h at 4° C., again followed by the wash steps as described previously. The final readout of the ELISA is Time-Resolved Fluorescence (counts per minute) using Delfia reagents Streptavidin-Europium and Enhancement solutions (Perkin Elmer) and the Victor 2 multilabel counter (Perkin Elmer).
A general note: An ELISA detects its analyte on a solid surface through an enzyme-linked reagent.

BACE1, sequence (P56817 46-501, species assumed): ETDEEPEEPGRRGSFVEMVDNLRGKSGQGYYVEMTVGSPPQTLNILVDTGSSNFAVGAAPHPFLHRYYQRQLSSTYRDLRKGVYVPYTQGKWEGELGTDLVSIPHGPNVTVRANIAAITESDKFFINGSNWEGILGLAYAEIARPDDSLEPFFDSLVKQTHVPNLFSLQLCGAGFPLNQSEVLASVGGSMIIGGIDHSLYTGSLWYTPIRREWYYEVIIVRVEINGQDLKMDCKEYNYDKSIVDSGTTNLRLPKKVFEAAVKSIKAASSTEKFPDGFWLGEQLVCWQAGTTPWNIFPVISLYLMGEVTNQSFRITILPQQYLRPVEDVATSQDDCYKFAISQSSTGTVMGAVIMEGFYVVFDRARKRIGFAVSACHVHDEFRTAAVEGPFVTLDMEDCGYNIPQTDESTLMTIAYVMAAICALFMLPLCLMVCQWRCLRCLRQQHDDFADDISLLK

As to `Cc1cc(F)cc(C(=O)N2CCCC2)c1-c1ccc2nc(N)c(N3CCOCC3)cc2c1` [Example 27, (2-(2-amino-3-morpholinoquinolin-6-yl)-5-fluoro-3-methylphenyl)(pyrrolidin-1-yl)methanone], the IC50 (commonly the concentration that inhibits the measured activity by half) on BACE1 was less than 0.1 µM; in experiment [1], 0.1 to 0.5 µM.
As to `Cc1cccc(C(=O)N2CCCC2)c1-c1ccc2nc(N)c(C3CCOCC3)cc2c1` [Example 28, (2-(2-amino-3-(tetrahydro-2H-pyran-4-yl)quinolin-6-yl)-3-methylphenyl)(pyrrolidin-1-yl)methanone], the IC50 (at BACE1; in experiment [1]) was less than 0.1 µM throughout.
Consider `Cc1cccc(C(=O)N2CCCC2)c1-c1ccc2nc(N)c(C3CCCCO3)cc2c1` (stereo not shown) [Example 29, (2-(2-amino-3-(tetrahydro-2H-pyran-2-yl)quinolin-6-yl)-3-methylphenyl)(pyrrolidin-1-yl)methanone], for which the IC50 at BACE1 lay within 0.1 to 0.5 µM; in experiment [1], 1.01 to 5 µM.
With `Cc1cccc(-c2ncc3ccccn23)c1-c1ccc2nc(N)c(N3CCOCC3)cc2c1` [Example 30, 6-(2-(imidazo[1,5-a]pyridin-3-yl)-6-methylphenyl)-3-morpholinoquinolin-2-amine], the IC50 fell in the range of 0.1 to 0.5 µM at BACE1 and 1.01 to 5 µM in experiment [1].
Take `Cc1coc(-c2cccc(C)c2-c2ccc3nc(N)c(N4CCOCC4)cc3c2)n1` [Example 31, 6-(2-methyl-6-(4-methyloxazol-2-yl)phenyl)-3-morpholinoquinolin-2-amine]: the figures for the IC50 (on BACE1; in experiment [1]) were 0.1 to 0.5 µM and greater than 5 µM, respectively.
With `Cc1cnc(-c2cccc(C)c2-c2ccc3nc(N)c(N4CCOCC4)cc3c2)o1` [Example 32, 6-(2-methyl-6-(5-methyloxazol-2-yl)phenyl)-3-morpholinoquinolin-2-amine], the IC50 at BACE1 was 1.01 to 5 µM; in experiment [1], greater than 5 µM.
As to `Nc1nc2ccc(-c3ccccc3-n3ncc4c3CCCC4)cc2cc1N1CCOCC1` [Example 33, 3-morpholino-6-(2-(4,5,6,7-tetrahydro-1H-indazol-1-yl)phenyl)quinolin-2-amine], the values for the IC50 (on BACE1; in experiment [1]) were 0.1 to 0.5 µM and 1.01 to 5 µM, respectively.
For `Cc1cccc(-n2cc(Cl)c(C)n2)c1-c1ccc2nc(N)c(N3CCOCC3)cc2c1` [Example 34, 6-(2-(4-chloro-3-methyl-1H-pyrazol-1-yl)-6-methylphenyl)-3-morpholinoquinolin-2-amine], in that order: less than 0.1 µM and 1.01 to 5 µM.
In the case of `Cc1cccc(C(O)c2cnccn2)c1-c1ccc2nc(N)c(N3CCOCC3)cc2c1` (stereo not shown) [Example 36, (2-(2-amino-3-morpholinoquinolin-6-yl)-3-methylphenyl)(pyrazin-2-yl)methanol], the IC50 (at BACE1; in experiment [1]) was 1.01 to 5 µM in each case.
Turning to `Cc1cccc(Cc2cnccn2)c1-c1ccc2nc(N)c(N3CCOCC3)cc2c1` [Example 37, 6-(2-methyl-6-(pyrazin-2-ylmethyl)phenyl)-3-morpholinoquinolin-2-amine], the values for the IC50 (at BACE1; in experiment [1]) were 0.501 to 1 µM and 1.01 to 5 µM, respectively.
Turning to `Cc1cccc(C(=O)c2ccccn2)c1-c1ccc2nc(N)c(C3CCOCC3)cc2c1` [Example 38, (2-(2-amino-3-(tetrahydro-2H-pyran-4-yl)quinolin-6-yl)-3-methylphenyl)(pyridin-2-yl)methanone], the IC50 at BACE1 was less than 0.1 µM; in experiment [1] it was 0.1 to 0.5 µM.
For the compound `Cc1cccc(C(=O)N2CCCC2)c1-c1cc2cc(N3CCOCC3)c(N)nc2cc1F` [Example 39, (2-(2-amino-7-fluoro-3-morpholinoquinolin-6-yl)-3-methylphenyl)(pyrrolidin-1-yl)methanone], the IC50 is less than 0.1 µM on BACE1 and 0.501 to 1 µM in experiment [1].
As to `Cc1cccc(C#CC(C)(C)C)c1-c1ccc2nc(N)c(N3CCOCC3)cc2c1` [Example 40, 6-(2-(3,3-dimethylbut-1-ynyl)-6-methylphenyl)-3-morpholinoquinolin-2-amine], the figures for the IC50 (on BACE1; in experiment [1]) were less than 0.1 µM and 1.01 to 5 µM, respectively.
For `Cc1cccc(C(=O)N(C)CC(C)(C)C)c1-c1ccc2nc(N)c(N3CCOCC3)cc2c1` [Example 41, 2-(2-amino-3-morpholinoquinolin-6-yl)-N,3-dimethyl-N-neopentylbenzamide], in that order: less than 0.1 µM and 0.501 to 1 µM.
For `Nc1nc2ccc(-c3c(Cl)cccc3C(=O)N3CCCC3)cc2cc1N1CCOCC1` [Example 42, (2-(2-amino-3-morpholinoquinolin-6-yl)-3-chlorophenyl)(pyrrolidin-1-yl)methanone], in that order: less than 0.1 µM and 0.501 to 1 µM.
For `Cc1cccc(C(=O)N2CCOC(C)(C)C2)c1-c1ccc2nc(N)c(N3CCOCC3)cc2c1` [Example 43, (2-(2-amino-3-morpholinoquinolin-6-yl)-3-methylphenyl)(2,2-dimethylmorpholino)methanone], in that order: 0.1 to 0.5 µM and 1.01 to 5 µM.
Turning to `CC(C)(C)C#Cc1cccc(C(=O)N2CCCC2)c1-c1ccc2nc(N)c(N3CCOCC3)cc2c1` [Example 44, (2-(2-amino-3-morpholinoquinolin-6-yl)-3-(3,3-dimethylbut-1-ynyl)phenyl)(pyrrolidin-1-yl)methanone], the IC50 on BACE1 was less than 0.1 µM; in experiment [1], 0.1 to 0.5 µM.
For `CC(C)(C)CCc1cccc(C(=O)N2CCCC2)c1-c1ccc2nc(N)c(N3CCOCC3)cc2c1` [Example 45, (2-(2-amino-3-morpholinoquinolin-6-yl)-3-(3,3-dimethylbutyl)phenyl)(pyrrolidin-1-yl)methanone], in that order: less than 0.1 µM and less than 0.1 µM.
In the case of `CC(C)(C)CC(=O)c1cccc(C(=O)N2CCCC2)c1-c1ccc2nc(N)c(N3CCOCC3)cc2c1` [Example 46, 1-(2-(2-amino-3-morpholinoquinolin-6-yl)-3-(pyrrolidine-1-carbonyl)phenyl)-3,3-dimethylbutan-1-one], the IC50 at BACE1 was less than 0.1 µM; in experiment [1], 0.1 to 0.5 µM.
For `CC(C)(C)CCc1cccc(C(=O)N2CC[C@@H](F)C2)c1-c1ccc2nc(N)c(N3CCOCC3)cc2c1` [Example 47, (R)-(2-(2-amino-3-morpholinoquinolin-6-yl)-3-(3,3-dimethylbutyl)phenyl)(3-fluoropyrrolidin-1-yl)methanone], in that order: less than 0.1 µM and less than 0.1 µM.
As for `Cc1cccc(N2CCOCC2=O)c1-c1ccc2nc(N)c(N3CCOCC3)cc2c1` [Example 48, 4-(2-(2-amino-3-morpholinoquinolin-6-yl)-3-methylphenyl)morpholin-3-one], the IC50 on BACE1 lay in the range of 0.501 to 1 µM; in experiment [1], 1.01 to 5 µM.
As for `Cc1cccc(N2CC(C)(C)OCC2=O)c1-c1ccc2nc(N)c(N3CCOCC3)cc2c1` [Example 49, 4-(2-(2-amino-3-morpholinoquinolin-6-yl)-3-methylphenyl)-6,6-dimethylmorpholin-3-one], the IC50 at BACE1 fell in the range of 0.1 to 0.5 µM; in experiment [1] it was 1.01 to 5 µM.
In the case of `Cc1cccc(N(C)C(=O)CC(C)(C)C)c1-c1ccc2nc(N)c(N3CCOCC3)cc2c1` [Example 50, N-(2-(2-amino-3-morpholinoquinolin-6-yl)-3-methylphenyl)-N,3,3-trimethylbutanamide], the IC50 was 0.501 to 1 µM at BACE1 and 1.01 to 5 µM in experiment [1].
`CC(C)(C)COc1ccccc1-c1ccc2nc(N)c(N3CCOCC3)cc2c1` [Example 51, 3-morpholino-6-(2-(neopentyloxy)phenyl)quinolin-2-amine]: the IC50 is 0.501 to 1 µM at BACE1 and greater than 5 µM in experiment [1].
On to `Cc1cccc(OCC(C)(C)C)c1-c1ccc2nc(N)c(N3CCOCC3)cc2c1` [Example 52, 6-(2-methyl-6-(neopentyloxy)phenyl)-3-morpholinoquinolin-2-amine], for which the 50% inhibitory concentration (IC50) on BACE1 is less than 0.1 µM; in experiment [1], greater than 5 µM.
Consider `Nc1nc2ccc(-c3ccccc3OCc3ccccc3)cc2cc1N1CCOCC1` [Example 53, 6-(2-(benzyloxy)phenyl)-3-morpholinoquinolin-2-amine], for which the results for the IC50 (on BACE1; in experiment [1]) were 0.1 to 0.5 µM and greater than 5 µM, respectively.
